For test [1], the system named is cultured human mast cells (CHMC). Kind of test: CHMC low cell density IgE activation: LTC4 assay. Type of test: cell-based. The conditions noted are these: anti-IgE activation, LTC4 release. The procedure:
Pellet CHMC cells (980 rpm, 10 min) and resuspend in pre-warmed MT. Add 65 ul of cells to each 96-well plate. Depending on the degranulation activity for each particular CHMC donor, load 1000-1500 cells/well. Mix four times followed by a 1 hr incubation at 37° C. […] Stimulate cells by adding 25 ul of 6× anti-IgE solution to the appropriate plates. Add 25 ul MT to un-stimulated control wells. Mix twice following addition of the anti-IgE. Incubate at 37° C. for 30 minutes. […] Spin plates at 1000 rpm for 10 min to pellet cells. Transfer 25 ul of supernatant to a 96-well black bottom plate and add 100 ul of freshly diluted tryptase substrate solution to each well. Incubate plates at room temperature for 30 min.
Leukotriene C4 (LTC4) is also quantified using an ELISA kit on appropriately diluted supernatant samples (determined empirically for each donor cell population so that the sample measurement falls within the standard curve) following the supplier's instructions.

Test [2] relates to Jurkat cells. Kind of test: Jurkat (T-cell) toxicity, light scatter. Type of test: cell-based, human. The conditions noted are these: read-out: Toxicity Jurkat Light Scat. The protocol: Dilute Jurkat cells to 2×10^5 cells/ml in complete RPMI (10% heat-inactivated fetal bovine serum) media and incubate at 37° C., 5% CO2 for 18 hours. Add 65 ul cells at 7.7×10^5 cells/ml to a 96-well V-bottom plate (TC-treated, Costar) containing 65 ul 2× compound (final vehicle concentration is 0.5% DMSO, 1.5% MeOH). Mix, incubate plates for 18-24 hr at 37° C., 5% CO2. Toxicity was assessed by flow cytometric analysis of cellular light scatter

The test system of test [3] is B-cell line BJAB. Kind of test: BJAB (B-cell) toxicity, light scatter. Type of test: cell-based. The conditions noted are these: read-out: Toxicity BJAB Light Scat. The protocol: The B-cell line BJAB was cultured in log phase in RPMI1640+10% heat-inactivated fetal bovine serum, 1× L-glutamine, 1× penicillin, 1× […] and 1× beta-mercaptoethanol at 37° C., 5% CO2. First, BJABs were harvested, spun and resuspended in culture medium to a concentration of 7.7×10^5 cells/mL. 65 uL cells were mixed with 65 uL compound, in duplicate and in the presence of 0.1% DMSO in a V-bottomed 96-well tissue culture plate. Cells were incubated with compound at various dilutions at 37° C., 5% CO2. Toxicity was assessed by flow cytometric analysis of cellular light scatter.

The test system of test [4] is cultured human mast cells (CHMC). Put plainly: CHMC low cell density IgE activation: tryptase assay. Type of test: cell-based. In a few lines: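 Degranulation was triggered with anti-IgE for 30 minutes at 37° C in cultured human mast cells seeded at low density (1000-1500 cells/well, chosen by donor) after a 1 hr equilibration in MT buffer. Released tryptase in cleared supernatant was quantified with a tryptase substrate at room temperature for 30 minutes.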

The test system is the same in test [5]. Kind of test: CHMC low cell density ionomycin activation: tryptase assay. Type of test: cell-based.
Test [6] has as its system Human Jurkat T-cells (clone N). Put plainly: Jurkat T-cell activation (anti-TCR, CD69 upregulation). Type of test: cell-based. In a few lines: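 Readout is CD69 upregulation by flow cytometry (anti-CD69-APC, 20 min at 4 °C) after 20 h anti-TCR (C305, 500 ng/ml) stimulation at 37 °C.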
For test [7], the system named is FcγRI-mediated degranulation. Put plainly: FcγRI-mediated degranulation (anti-human IgG Fab activation). Type of test: cell-based. The settings on record: cells not primed with IgE, activated with rabbit anti-human IgG Fab fragment.
The target in test [8] is T1, Syk kinase (Homo sapiens, UniProt P43405).
T1 construct: purchased Upstate, Lake Placid NY
Kind of test: Syk kinase biochemical fluorescence polarization assay. The conditions noted are these: isolated Syk kinase, fluorescence polarization, 4 uM ATP. For orientation: Fluorescence polarisation rises when a labelled molecule tumbles more slowly, as on binding a larger partner.

Test [9] can be described thus: Sheep model of allergic asthma. Type of test: in vivo. The procedure: In the sheep model of allergic asthma, sheep are administered aerosols of test article via an endotracheal tube, followed by an aerosol challenge with antigen extracted from the roundworm, Ascaris suum, to which the sheep are naturally allergic. Allergen challenge leads to direct bronchoconstriction (both EAR and LAR) and a persistent non-specific AHR. These three characteristics are similar to those seen in human allergic asthmatics. The activity of the test agent is determined by changes in the lung resistance (RL), which is calculated from measurements of transpulmonary pressure, flow, and respiratory volume. […] The LAR is a less pronounced increase in RL, which starts approximately 5-6 hours following allergen challenge and is resolved by 8 hours post-challenge. Twenty-four hours after the challenge, a dose response to carbachol is measured to determine the AHR, which is expressed as the dose of carbachol required to increase RL by 400% over baseline. (This measurement is referred to as the provocative concentration of carbachol that elicits a 400% increase in RL over baseline (PC400). The data are compared to historical control data for the same individual when administered a saline control aerosol and challenged with Ascaris suum.

In test [10] the test system is IgE-induced degranulation of tissue mast cells. Put plainly: Mouse model of passive cutaneous anaphylaxis (PCA). The settings on record: oral route in a PEG-based formulation (data not shown). Type of test: in vivo. The procedure:
This model provides a direct measure of IgE-induced degranulation of tissue mast cells. In this model, IgE primed animals are exposed to an allergen challenge, and the change in permeability of dermal vasculature that results from histamine release from mast cells is measured by change in the amount of dye leakage into surrounding tissue. Inhibition of mediator release by compounds that modulate mast cell degranulation is easily measured by extracting the dye from the tissue.
In the PCA assay mice are passively sensitized by intradermal injection with anti-dinitrophenol (DNP) IgE antibodies (Day −1). At predetermined times animals are treated with the test agent (Day 0). The modulatory effect of the agent on cutaneous mast cell degranulation is measured following intravenous injection of DNP conjugated to human serum albumin (HSA-DNP), together with Evans blue dye. The resulting cross-linking of the IgE receptor and subsequent mast cell degranulation-induced increase in vascular permeability is determined by measuring the amount of dye extravasation into the tissue. Dye is extracted from the tissue by formamide, and the absorbance of this extract is read at 620 nm.

The subject of test [11] is basophil cells (human peripheral blood). Kind of test: Basophil ionomycin activation: histamine release assay. Type of test: cell-based. The conditions noted are these: basophils, ionomycin activation, histamine release; read-out: Basophils Ionomycin Histamine IC50. The protocol: The basophil activation assay was carried out using whole human peripheral blood from donors allergic to dust mites with the majority of the red blood cells removed by dextran sedimentation. Human peripheral blood was mixed 1:1 with 3% dextran T500 and RBCs were allowed to settle for 20-25min. The upper fraction was diluted with 3 volumes of D-PBS and cells were spun down for 10 min at 1500 rpm, RT. Supernatant was aspirated and cells were washed in an equal volume MT-buffer. Finally, cells were resuspended in MT-buffer containing 0.5% DMSO in the original blood volume. 80 uL cells were mixed with 20 uL compound in the presence of 0.5% DMSO, in triplicate, in a V-bottom 96-well tissue culture plate. A dose range of 8 compound concentrations was tested resulting in a 10-point dose response curve including maximum (stimulated) and minimum (unstimulated) response. […] The cells were stimulated for 30 minutes at 37° C., 5% CO2. The plate was spun for 10 min at 1500 rpm at room temperature and 80 uL the supernatant was harvested for histamine content analysis using the histamine ELISA kit supplied by Immunotech. The ELISA was performed according to supplier's instructions.
Assays for ionomycin-induced basophil cell degranulation were carried out as described for the Basophil IgE or Dustmite Activation Assay (Section 7.5.5, supra), with the exception that following incubation with compound, cells were stimulated with 20 μl of 2 μM ionomycin.

Test [12] relates to Primary T-cells. Kind of test: Primary T-cell cytokine production (αCD3/αCD28): IL-2. Type of test: cell-based, human. The settings on record: read-out: 1° T-Cell IL2 IC50. The protocol: 2E8-4E8 PBMC or proliferating T cells grown in rIL-2 from healthy human donors were suspended in PBS were spun down (1500 rpm, 8-10 minutes) and resuspended in 100 ml RPMI Complete media (1% Pen-Strep, 1% L-Glutamine, 10 mM HEPES). The cells were plated in T175 flasks (37° C., 5% CO2) and monocytes were allowed to adhere for 2-3 hours. After monocyte attachment, non-adherent cells were harvested, counted by hemocytometer, washed several times with PBS then resuspended in Yssels Complete Media (Modified IMDM Media with 1% Human AB Serum, 1% Pen-Strep, 1% L-Glutamine, 10 mM HEPES) at […]. 90 uL of the cell dilution were then added to compounds diluted to 2× in Yssel's media and incubated for 30 minutes at 37° C. (5% CO2). After this preincubation step the compound/cell mixture was transferred to stimulation plates, as described below.
Stimulation plates were prepared by coating 96 well plates with 5 μg/ml αCD3 (BD PharMingen, Catalog #555336)+10 μg/ml αCD28 (Beckman Coulter, Catalog #IM1376) in PBS (no Ca^2+/Mg^2+) at 37° C. (5% CO2) for at 3-5 hours. After incubation with the stimulation antibodies, the cocktail was removed and the plates washed 3 times with PBS prior to addition of the primary T cell/compound mixture.
The compound/cell mixture was transferred to the stimulation plates and incubated for 18 hr at 37° C. (5% CO2). After the cell stimulation, ˜150 μl supernatant were transferred from each well into 96-well filter plates (Coming PVDF Filter Plates) spun down (2000 rpm, 2-3 minutes) and either used immediately for ELISA or LUMINEX measurements or frozen down at −80° C. for future use.
IL-2 ELISAs were performed using the Quantikine Human IL-2 ELISA kit (R&D Systems, Catalog # D2050) as described by the manufacturer and absorption was measured on a spectrophotometer at 450 nm wavelength. Blank values were substracted and absorbances were converted to pg/mL based on the standard curve.
Luminex immunoassay multiplexing for TNF, IL-2, GMSCF, IL-4 and IFNg was performed essentially as described by the manufacturer (Upstate Biotechnology). Essentially 50 uL of sample was diluted into 50 uL assay diluent and 50 uL incubation buffer, then incubated with 100 uL of the diluted detection antibody for 1 hr at RT in the dark. The filter plate was washed 2× in Wash Buffer, then incubated with 100 uL of the diluted secondary reagent (SAV-RPE) for 30 min at RT in the dark. Finally the plates were washed 3 times and bead identification and RPE fluorescent measured by the Luminex instrument.
Varied concentrations of compound were compared to solvent only to determine the inhibition of T-cell activation IC50 of each compound.

The mark [13] stands for this setting: Low Density CHMC, anti-IgE activation, tryptase release, read-out: CHMC anti-IgE Tryptase IC50.
[14] abbreviates: Low Density CHMC, ionomycin activation, tryptase release, read-out: CHMC Ionomycin Tryptase IC50.
Where [15] appears, read: dose, pretreatment and vehicle per compound as in TABLE 5.

Regarding `Cc1cnc(Nc2cccc(O)c2)nc1Nc1cccc(O)c1` [Compound R926248], the IC50 is 760 nM in test [1]; more than 10000 nM in [2]; more than 10000 nM in test [3]; 900 nM in test [4] (setting [13]); more than 10000 nM in test [5] (setting [14]); 1540 nM in [6].
On to `Cc1cc(Nc2ncc(F)c(Nc3ccc4c(c3)NC(=O)C(F)(F)O4)n2)cc(Cl)c1O` [Compound R926971], for which the IC50 is 34 nM in [4] (low cell density, read-out: CHMC anti-IgE Tryptase); 8 nM in test [8]; more than 10000 nM in [5] (low cell density, read-out: CHMC Ionomycin Tryptase). The “inhibition of FcγRI-mediated degranulation” value in test [7] is “inhibit FcγRI-mediated degranulation”.
As to `Oc1cccc(Nc2ccnc(Nc3cccc(O)c3)n2)c1` [Compound R926249], the IC50 was 250 nM in test [1]; more than 10000 nM in test [2]; more than 10000 nM in test [3]; 500 nM in test [4] (setting [13]); more than 10000 nM in [5] (setting [14]); 954 nM in [6].
`CNC(=O)COc1cccc(Nc2ncc(C(F)(F)F)c(Nc3cccc(O)c3)n2)c1` [Compound R926742]: the EAR entry in [9] (administered in an aqueous suspension) is recorded as “failed to inhibit”. For the same compound, the “LAR and AHR” value in test [9] (setting [15]) is recorded as “blocked”. For the same compound, in test [10], the PCA response entry was “able to inhibit the PCA response”. For the same compound, the IC50 is more than 10000 nM in test [11], 717 nM in test [12] and 76 nM in [8].
In the case of `CC(=O)Oc1cccc(Nc2ncc(F)c(Nc3cccc(OC(C)=O)c3)n2)c1` [Compound R926387], the IC50 in test [1] is 700 nM; in test [2], more than 10000 nM; in test [3], more than 10000 nM; in test [4] (setting [13]) it was 650 nM; in test [5] (setting [14]), more than 10000 nM; in [6], 3850 nM.
Regarding `Oc1cccc(Nc2ncc(Br)c(Nc3cccc(O)c3)n2)c1` [Compound R925778], the IC50 in [1] is 180 nM; in test [2] it was more than 10000 nM; in test [3], more than 10000 nM; in [4] (setting [13]), 225 nM; in test [5] (setting [14]) it was more than 10000 nM; in test [6], 3400 nM.
With `Oc1cccc(Nc2nc(Nc3ccc4c(c3)OCCO4)ncc2Br)c1` [Compound R925797], the IC50 in [1] is 280 nM; in test [2] it was more than 10000 nM; in test [3], more than 10000 nM; in [4] (setting [13]), 850 nM; in test [5] (setting [14]), more than 10000 nM; in test [6] it was 1510 nM.
As for `CNC(=O)COc1cccc(Nc2ncc(F)c(Nc3ccc4c(c3)OCCO4)n2)c1` [Compound R926495], the EAR entry in [9] (setting [15]) is given as “greatly reduced”. Further, in test [9] (setting [15]), the “LAR and AHR” value was “blocked”. In addition, the IC50 in test [11] is more than 10000 nM; in test [12], 643 nM; in test [6], 11900 nM.

The values are drawn from patent publication US8158621B2, “Methods of treating or preventing autoimmune diseases with 2,4-pyrimidinediamine compounds” (Rigel Pharmaceuticals, Inc., priority 2002, dated 2012).
